In patent publication US20220000911A1, “COMBINATION OF GOLD COMPLEXES WITH OLAPARIB OR OTHER PARP1/2 INHIBITORS FOR USE IN THE TREATMENT OF CANCER RESISTANT TO SAID PARP1/2 INHIBITORS” (Varsity Pharmaceuticals Limited, priority 2020, published 2022):

Legend:
Assay type in all cases: cell-based
[1] = tested on: olaparib resistant A2780 ovarian cancer cells; assay: CellTiter Glo proliferation inhibition, olaparib resistant A2780 cells, single agents; details: for Maximum inhibition observed in olaparib resistant A2780 cells: concentration range 0.06 nM to 30,000 nM
Procedure: A2780 ovarian cancer cells (wild-type “WT”) were cultured in RPMI 1640 Medium with 10% Fetal Bovine Serum (FBS).
To obtain cells resistant to olaparib, the cells were cultured in cell culture medium (RPMI 1640 Medium with 10% FBS) supplemented with 20 μM olaparib for one month in order to generate A2780 cells resistant to olaparib (“R”). After a month the cells were continuously cultured in the cell culture medium (RPMI 1640 Medium with 10% FBS) supplemented with 10 μM olaparib prior to use and for up to two months to maintain the resistance.
(§1) The cells were harvested from a flask into cell culture medium (RPMI 1640 Medium with 10% FBS) and then counted. The cells were diluted with culture medium and 40 μL of cell suspension (1000 cells/well) was added into each well of a 384-well cell culture plate. The plate was covered with a lid and left at room temperature without shaking for 30 minutes. The plate was then transferred to an incubator at 37° C. and 5% CO2 and left overnight.
Test compounds were dissolved at a concentration of 30 mM in DMSO to create a stock solution. 45 μL of the stock solution was transferred to a 384 pp-plate. […] The plate was then spun at room temperature at 1,000 RPM for 1 minute. 40 nL of the diluted compound was then transferred from the compound source plate into the cell plate. The cell plate was then covered with a lid and placed in an incubator at 37° C. and 5% CO2 and left for 120 hours. 72 hours after treatment with the compound detection was conducted as discussed below.
(§2) CellTiter Glo® reagents were thawed and equilibrated to room temperature. The cell plate was then removed from the incubator and equilibrated at room temperature for 15 minutes. 30 μL of the CellTiter Glo® reagents were then added into each well (at 1:1 to culture medium). The contents was mixed for 2 minutes on an orbital shaker to induce cell lysis and then the plates were allowed to incubate at room temperature for 30 minutes. Luminescence was then measured on an Envision reader (Perkin Elmer).
The inhibition activity was calculated using the following formula:
(§3) Inhibition (%)=100×(Lumvehicle−Lumsample)/(Lumvehicle−Lumblank),
where Lumvehicle is the luminescence of cells treated with 0.1% DMSO and Lumblank is cells in the culture medium.
The IC50 was calculated by fitting the curve using Xlfit (v5.3.1.3), equation 201: […]

[2] = tested on: olaparib resistant HCC1937 triple negative breast cancer cells; assay: Proliferation inhibition of olaparib resistant HCC1937 cells, single agents
Procedure: as §1
Test compounds were dissolved at a concentration of 30 mM in DMSO to create a stock solution. 45 μL of the stock solution was transferred to a 384 pp-plate. A 3-fold, 10-point dilution was performed by transferring 15 μL of the compound solution into 30 μL DMSO by using TECAN (EVO200) liquid handler. The plate was then spun at room temperature at 1,000 RPM for 1 minute. 40 nL of the diluted compound was then transferred from the compound source plate into the cell plate. The cell plate was then covered with a lid and placed in an incubator at 37° C. and 5% CO2 and left for 120 hours. 72 hours after treatment with the compound detection was conducted as discussed below.
as §2, §3
The methods were as described in examples 1 and 2, except the HCC1937 cell line was used.
The HCC1937 cell line was established from a primary breast carcinoma from a patient with a germ-line BRCA1 mutation. It is an example of a triple-negative breast cancer (TNBC) cell line. Breast cancer patients routinely have the expression of estrogen receptor (ER), progesterone receptor (PR), and amplification of HER-2/Neu evaluated. […] The latter group is referred to as triple-negative breast cancer based on the lack of these three molecular markers. TNBC represents approximately 10-15% of all breast cancers and patients with TNBC have a poor outcome compared to the other subtypes of breast cancer.

[3] = tested on: wildtype A2780 ovarian cancer cells; assay: CellTiter Glo proliferation inhibition, wild-type A2780 cells; details: for Maximum inhibition observed in wild-type A2780 cells: concentration range 0.06 nM to 30,000 nM
Procedure: The A2780 cell line is an ovarian cancer cell line that was established from an ovarian endometroid adenocarcinoma tumour. […] It is commonly used as a model to observe the effects of, and test the potency of various chemicals, methods of delivery and treatments for ovarian cancer. […] The cells were diluted with culture medium and 40 μL of cell suspension (1000 cells/well) was added into each well of a 384-well cell culture plate. The plate was covered with a lid and left at room temperature without shaking for 30 minutes. The plate was then transferred to an incubator at 37° C. and 5% CO2 and left overnight. Test compounds were dissolved at a concentration of 30 mM in DMSO to create a stock solution. 45 μL of the stock solution was transferred to a 384 pp-plate. […] The plate was then spun at room temperature at 1,000 RPM for 1 minute. 40 nL of the diluted compound was then transferred from the compound source plate into the cell plate. The cell plate was then covered with a lid and placed in an incubator at 37° C. and 5% CO2 and left for 120 hours. 72 hours after treatment with the compound detection was conducted as discussed below. CellTiter Glo® reagents were thawed and equilibrated to room temperature. The cell plate was then removed from the incubator and equilibrated at room temperature for 15 minutes. 30 μL of the CellTiter Glo® reagents were then added into each well (at 1:1 to culture medium). The contents was mixed for 2 minutes on an orbital shaker to induce cell lysis and then the plates were allowed to incubate at room temperature for 30 minutes. Luminescence was then measured on an Envision reader (Perkin Elmer). The inhibition activity was calculated using the following formula: […]

[4] = olaparib resistant A2780, test conc. 1,111.11 nM
[5] = olaparib resistant A2780, test conc. 3,333.33 nM
[6] = wildtype A2780, test conc. 1,111.11 nM
[7] = wildtype A2780, test conc. 3,333.33 nM

O=C(c1cc(Cc2n[nH]c(=O)c3ccccc23)ccc1F)N1CCN(C(=O)C2CC2)CC1 [Olaparib, olaparib]
IC50 ([1]; Homo sapiens, A2780): > 30000 nM | inhibition at 0.00152 µM ([1]; Homo sapiens, olaparib resistant A2780, test conc. 1.52 nM, read-out: Mean Inhibition (n = 3)): 1.01% | inhibition at 0.00457 µM ([1]; Homo sapiens, olaparib resistant A2780, test conc. 4.57 nM, read-out: Mean Inhibition (n = 3)): 2.74% | inhibition at 0.01372 µM ([1]; Homo sapiens, olaparib resistant A2780, test conc. 13.72 nM, read-out: Mean Inhibition (n = 3)): 1.78% | inhibition at 0.04115 µM ([1]; Homo sapiens, olaparib resistant A2780, test conc. 41.15 nM, read-out: Mean Inhibition (n = 3)): 1.43% | inhibition at 0.12346 µM ([1]; Homo sapiens, olaparib resistant A2780, test conc. 123.46 nM, read-out: Mean Inhibition (n = 3)): 5.53% | inhibition at 0.37037 µM ([1]; Homo sapiens, olaparib resistant A2780, test conc. 370.37 nM, read-out: Mean Inhibition (n = 3)): 5.11% | inhibition at 10 µM ([1]; Homo sapiens, olaparib resistant A2780, test conc. 10,000 nM, read-out: Mean Inhibition (n = 3)): 9.9% | inhibition at 30 µM ([1]; Homo sapiens, olaparib resistant A2780, test conc. 30,000 nM, read-out: Mean Inhibition (n = 3)): 16.2% | Maximum inhibition observed in olaparib resistant A2780 cells [1]: 23% | Mean Inhibition (n = 3) [1, 4]: 2.24% | Mean Inhibition (n = 3) [1, 5]: 6.97% | inhibition at 0.00152 µM ([2]; test conc. 1.52 nM, read-out: Mean Inhibition (n = 3)): -6.55% | inhibition at 0.00457 µM ([2]; test conc. 4.57 nM, read-out: Mean Inhibition (n = 3)): -1.82% | inhibition at 0.01372 µM ([2]; test conc. 13.72 nM, read-out: Mean Inhibition (n = 3)): -3.47% | inhibition at 0.04115 µM ([2]; test conc. 41.15 nM, read-out: Mean Inhibition (n = 3)): -0.93% | inhibition at 0.12346 µM ([2]; test conc. 123.46 nM, read-out: Mean Inhibition (n = 3)): 1.32% | inhibition at 0.37037 µM ([2]; test conc. 370.37 nM, read-out: Mean Inhibition (n = 3)): 4.41% | Mean Inhibition (n = 3) ([2]; test conc. 1,111.11 nM): 3.09% | Mean Inhibition (n = 3) ([2]; test conc. 3,333.33 nM): 4.90% | inhibition at 10 µM ([2]; test conc. 10,000 nM, read-out: Mean Inhibition (n = 3)): 17% | inhibition at 30 µM ([2]; test conc. 30,000 nM, read-out: Mean Inhibition (n = 3)): 11.8% | IC50 ([3]; Homo sapiens, A2780): 3890 nM | inhibition at 0.00152 µM ([3]; Homo sapiens, wildtype A2780, test conc. 1.52 nM, read-out: Mean Inhibition (n = 3)): 0.36% | inhibition at 0.00457 µM ([3]; Homo sapiens, wildtype A2780, test conc. 4.57 nM, read-out: Mean Inhibition (n = 3)): 1.77% | inhibition at 0.01372 µM ([3]; Homo sapiens, wildtype A2780, test conc. 13.72 nM, read-out: Mean Inhibition (n = 3)): 2.98% | inhibition at 0.04115 µM ([3]; Homo sapiens, wildtype A2780, test conc. 41.15 nM, read-out: Mean Inhibition (n = 3)): 5% | inhibition at 0.12346 µM ([3]; Homo sapiens, wildtype A2780, test conc. 123.46 nM, read-out: Mean Inhibition (n = 3)): 12.5% | inhibition at 0.37037 µM ([3]; Homo sapiens, wildtype A2780, test conc. 370.37 nM, read-out: Mean Inhibition (n = 3)): 11.9% | inhibition at 10 µM ([3]; Homo sapiens, wildtype A2780, test conc. 10,000 nM, read-out: Mean Inhibition (n = 3)): 62.7% | inhibition at 30 µM ([3]; Homo sapiens, wildtype A2780, test conc. 30,000 nM, read-out: Mean Inhibition (n = 3)): 70.8% | Maximum inhibition observed in wild-type A2780 cells [3]: 72% | Mean Inhibition (n = 3) [3, 6]: 24.63% | Mean Inhibition (n = 3) [3, 7]: 39.88%

CC(=O)OC[C@H]1O[C@@H]([S-])[C@H](OC(C)=O)[C@@H](OC(C)=O)[C@@H]1OC(C)=O.CCP(CC)CC.[Au+] [Auranofin, auranofin]
Maximum inhibition observed in olaparib resistant A2780 cells [1]: 100% | Mean Inhibition (n = 3) ([1]; olaparib resistant A2780, test conc. 1.52 nM): 4.64% | Mean Inhibition (n = 3) ([1]; olaparib resistant A2780, test conc. 4.57 nM): 3.42% | Mean Inhibition (n = 3) ([1]; olaparib resistant A2780, test conc. 13.72 nM): 12.34% | Mean Inhibition (n = 3) ([1]; olaparib resistant A2780, test conc. 41.15 nM): 41.07% | Mean Inhibition (n = 3) ([1]; olaparib resistant A2780, test conc. 123.46 nM): 78.31% | Mean Inhibition (n = 3) ([1]; olaparib resistant A2780, test conc. 370.37 nM): 96.38% | Mean Inhibition (n = 3) [1, 4]: 96.82% | Mean Inhibition (n = 3) [1, 5]: 100.13% | Mean Inhibition (n = 3) ([1]; olaparib resistant A2780, test conc. 10,000 nM): 100.19% | Mean Inhibition (n = 3) ([1]; olaparib resistant A2780, test conc. 30,000 nM): 100.17% | IC50 ([1]; olaparib resistant A2780 cells): 55 nM | Mean Inhibition (n = 3) ([2]; test conc. 1.52 nM): −8.11% | Mean Inhibition (n = 3) ([2]; test conc. 4.57 nM): 0.54% | Mean Inhibition (n = 3) ([2]; test conc. 13.72 nM): −0.91% | Mean Inhibition (n = 3) ([2]; test conc. 41.15 nM): 0.49% | Mean Inhibition (n = 3) ([2]; test conc. 123.46 nM): 0.54% | Mean Inhibition (n = 3) ([2]; test conc. 370.37 nM): 13.11% | Mean Inhibition (n = 3) ([2]; test conc. 1,111.11 nM): 59.64% | Mean Inhibition (n = 3) ([2]; test conc. 3,333.33 nM): 98.95% | Mean Inhibition (n = 3) ([2]; test conc. 10,000 nM): 100.03% | Mean Inhibition (n = 3) ([2]; test conc. 30,000 nM): 99.97% | Maximum inhibition observed in wild-type A2780 cells [3]: 100% | IC50 ([3]; wild-type A2780 cells): 101 nM | Mean Inhibition (n = 3) ([3]; wildtype A2780, test conc. 1.52 nM): −1.87% | Mean Inhibition (n = 3) ([3]; wildtype A2780, test conc. 4.57 nM): −0.74% | Mean Inhibition (n = 3) ([3]; wildtype A2780, test conc. 13.72 nM): 2.52% | Mean Inhibition (n = 3) ([3]; wildtype A2780, test conc. 41.15 nM): 21.08% | Mean Inhibition (n = 3) ([3]; wildtype A2780, test conc. 123.46 nM): 56.32% | Mean Inhibition (n = 3) ([3]; wildtype A2780, test conc. 370.37 nM): 86.25% | Mean Inhibition (n = 3) [3, 6]: 98.39% | Mean Inhibition (n = 3) [3, 7]: 100.15% | Mean Inhibition (n = 3) ([3]; wildtype A2780, test conc. 10,000 nM): 100.17% | Mean Inhibition (n = 3) ([3]; wildtype A2780, test conc. 30,000 nM): 100.20%
